Measurements published in US20230265378A1, “STIMULATING CELLULAR PRODUCTION OF EXOSOMES” (ROYAL MELBOURNE INSTITUTE OF TECHNOLOGY, priority 2020, published 2023).
Counter-ions that a name gives are not always drawn.

Experiments:
intracellular Ca^2+ = assay: Calcium influx study, intracellular Ca^2+ levels by Fura-2 AM assay; assay type: cell-based; details: amiloride HCl 100 μM 60 mins, thapsigargin 100 nM 25 mins, BAPTA-AM 10 μM 25 mins, in combinations; FIG. 9a iv, v, vi
Procedure: The data are represented in terms of the mean value±the standard error over quadruplicate runs, and the asterisks *, **, *** and **** indicate statistically significant differences with p<0:05, p<0:01, p<0:001 and p<0:0001, respectively.
The cells were seeded at a density of 0:05×10^6 cells per well in a 24-well glass-bottom plate and incubated at overnight in a humidified incubator. After incubation, they were treated with combinations of amiloride HCl (100 μM, for 60 mins)—a Ca^2+ ion channel blocker, thapsigargin (100 nM, for 25 mins)—an endoplasmic reticulum calcium ion inhibitor, and, BAPTA-AM (10 μM, for 25 mins)—a membrane permeable calcium chelator that removes intracellular calcium, following which they were incubated in the presence of 10 μM Fura2-AM for 60 mins at 37° C. to measure the intracellular Ca^2+ levels. The cells were then washed to remove the extracellular dye and replenished with DMEM, taking care to protect them from exposure to light. The media devoid of calcium from the inhibitor-treated cells was subsequently replaced with media containing calcium, and, where appropriate, exposed to the SRBW insonation (i.e. acoustic stimulation). Changes in the fluorescence intensity were measured with a spectrophotometric plate reader (CLARIOstar®, BMG LabTech, Mornington, VIC, Australia).

cells = details: within 2 to 72 hrs; dose dependent; cited from earlier work

Row | Compound | effect on intracellular calcium store (intracellular Ca^2+) | enhancing exosome yield (cells)
1 | N=C(N)NC(=O)c1nc(Cl)c(N)nc1N [amiloride HCl, amiloride hydrochloride] | deplete the intracellular calcium store | 
2 | C/C=C(/C)C(=O)O[C@H]1C(C)=C2[C@H]([C@@H]1OC(=O)CCCCCCC)[C@@](C)(OC(C)=O)C[C@H](OC(=O)CCC)[C@@]1(O)[C@H]2OC(=O)[C@@]1(C)O [thapsigargin] | deplete the intracellular calcium store | 
3 | calcium phosphate |  | two-and-one-half-fold
4 | C[C@H](CCC(=O)O)C[C@H](C)C[C@H](C)C(=O)/C=C(\O)[C@H](C)C[C@H](C)C/C=C/[C@@H](C)[C@@H](O)[C@@H](C)[C@@H](O)C[C@@H]1CC[C@@](C)([C@H]2CC[C@@](C)([C@@H](C)O)O2)O1 [ionomycin] |  | two-and-one-half-fold
